Measurements as given in DBAASP.
≈ marks a conversion by molar mass, not a printed value. One block for each molecule: values may come before it.

Legend:
Assay in all cases: ≥ marks a high value that may be exact or a test limit, other limits are often not marked, values filed in µg/mL are converted to µM
[1] = test system: Neisseria gonorrhoeae F62
[2] = test system: Neisseria gonorrhoeae FA19
[3] = test system: Staphylococcus aureus BCRC 10780
[4] = test system: Vibrio harveyi BCRC 13812
Vibrio alginolyticus = test system: Vibrio alginolyticus
[5] = test system: Staphylococcus sp. BCRC 10451
[6] = test system: Micrococcus luteus BCRC 11034
[7] = test system: Streptococcus pneumoniae BCRC 10794
[8] = test system: Burkholderia thailandensis
[9] = test system: Bacillus subtilis ATCC 9372
[10] = test system: Bacillus anthracis Sterne 34F2
Fusarium oxysporum = test system: Fusarium oxysporum
[11] = test system: Pseudomonas aeruginosa ATCC 27853
Aspergillus ochraceus = test system: Aspergillus ochraceus
[12] = test system: Staphylococcus aureus ATCC 25325
Fulvia fulva = test system: Fulvia fulva
Aspergillus niger = test system: Aspergillus niger
Colletotrichum sp. = test system: Colletotrichum sp.
[13] = test system: Escherichia coli ATCC 35218
Alternaria sp. = test system: Alternaria sp.
[14] = test system: Acinetobacter baumannii NR-17777
[15] = test system: Pseudomonas aeruginosa ATCC 10145
[16] = test system: Pseudomonas aeruginosa ATCC 35032
[17] = test system: Acinetobacter baumannii NR-17784
[18] = test system: Pseudomonas aeruginosa ATCC 9027
[19] = test system: Staphylococcus epidermidis NRS 101
[20] = test system: Staphylococcus aureus USA 200
[21] = test system: Staphylococcus aureus ATCC 43300
[22] = test system: Pseudomonas aeruginosa ATCC 9721
[23] = test system: Staphylococcus aureus USA 100
[24] = test system: Pseudomonas aeruginosa ATCC BAA-1744
[25] = test system: Staphylococcus aureus RN4220
[26] = test system: Staphylococcus aureus ATCC 6538
[27] = test system: Pseudomonas aeruginosa ATCC 15442
[28] = test system: Staphylococcus aureus USA 300
[29] = test system: Acinetobacter baumannii ATCC 19606
[30] = test system: Staphylococcus aureus ATCC BAA-44
[31] = test system: Staphylococcus aureus VRSA2
[32] = test system: Pseudomonas aeruginosa 1133
[33] = test system: Staphylococcus aureus NRS 1
[34] = test system: Staphylococcus aureus NRS 72
[35] = test system: Acinetobacter baumannii NR-9667
[36] = test system: Acinetobacter baumannii ATCC BAA-747
[37] = test system: Staphylococcus aureus NRS 19
[38] = test system: Acinetobacter baumannii ATCC BAA-1605
[39] = test system: Staphylococcus aureus NRS 77
[40] = test system: Staphylococcus aureus VRSA1
[41] = test system: Pseudomonas aeruginosa 1017
[42] = test system: Pseudomonas aeruginosa 1109
[43] = test system: Pseudomonas aeruginosa ATCC 25619

SMILES: CC(C)[C@H](NC(=O)[C@@H]1CSSC[C@H](N)C(=O)N[C@@H](Cc2ccc(O)cc2)C(=O)N[C@H]2CSSC[C@H](NC(=O)[C@H](Cc3ccccc3)NC(=O)[C@H](CCCNC(=N)N)NC(=O)[C@H](CCCNC(=N)N)NC(=O)[C@H](CCCNC(=N)N)NC2=O)C(=O)N[C@@H](C(C)C)C(=O)N1)C(=O)NCC(=O)N[C@@H](CCCNC(=N)N)C(N)=O [CYCRRRFCVCVGR]
MIC [1]: 2.7 µM (≈ 4.36 µg/mL) | MIC [2]: 6.56 µM (≈ 10.6 µg/mL)

SMILES: CC[C@H](C)[C@H](NC(=O)[C@H](Cc1cnc[nH]1)NC(=O)[C@H](CCCCN)NC(=O)[C@@H](NC(=O)[C@@H](NC(=O)[C@H](CC(=O)O)NC(=O)[C@H](Cc1ccccc1)NC(=O)[C@H](Cc1c[nH]c2ccccc12)NC(=O)CN)C(C)C)C(C)C)C(=O)N[C@@H](C)C(=O)N[C@@H](CO)C(=O)N[C@@H](C)C(=O)N[C@H](C(=O)O)C(C)C [GWFDVVKHIASAV]
MIC [8]: ≥ 50 µM | MIC [9]: ≥ 100 µM | MIC [10]: ≥ 100 µM

SMILES: CC[C@H](C)[C@H](NC(=O)[C@H](CCCN=C(N)N)NC(=O)[C@H](CCCN=C(N)N)NC(=O)[C@H](CC(C)C)NC(=O)[C@@H](N)Cc1c[nH]c2ccccc12)C(=O)N[C@@H](CCCCN)C(=O)N[C@@H](C)C(=O)N[C@@H](Cc1c[nH]c2ccccc12)C(=O)N[C@@H](CC(C)C)C(=O)N[C@@H](CCCN=C(N)N)C(=O)N[C@@H](CCCN=C(N)N)C(=O)O [WLRRIKAWLRR]
MIC [14]: 16 µM (≈ 24.9 µg/mL) | MIC [15]: ≥ 128 µM | MIC [16]: ≥ 64 µM | MIC [17]: ≥ 64 µM | MIC [18]: 64 µM (≈ 99.5 µg/mL) | MIC [19]: 8 µM (≈ 12.4 µg/mL) | MIC [20]: 8 µM (≈ 12.4 µg/mL) | MIC [21]: 16 µM (≈ 24.9 µg/mL) | MIC [22]: ≥ 64 µM | MIC [23]: 16 µM (≈ 24.9 µg/mL) | MIC [24]: ≥ 128 µM | MIC [11]: 64 µM (≈ 99.5 µg/mL) | MIC [25]: 8 µM (≈ 12.4 µg/mL) | MIC [26]: 16 µM (≈ 24.9 µg/mL) | MIC [27]: ≥ 128 µM | MIC [28]: 16 µM (≈ 24.9 µg/mL) | MIC [29]: 16 µM (≈ 24.9 µg/mL) | MIC [30]: 16 µM (≈ 24.9 µg/mL) | MIC [31]: 16 µM (≈ 24.9 µg/mL) | MIC [32]: ≥ 64 µM | MIC [33]: 16 µM (≈ 24.9 µg/mL) | MIC [34]: ≥ 32 µM | MIC [35]: ≥ 32 µM | MIC [36]: ≥ 64 µM | MIC [37]: 8 µM (≈ 12.4 µg/mL) | MIC [38]: ≥ 32 µM | MIC [39]: 16 µM (≈ 24.9 µg/mL) | MIC [40]: ≥ 32 µM | MIC [41]: ≥ 128 µM | MIC [42]: ≥ 128 µM | MIC [43]: ≥ 64 µM

Further lines, results first:

MIC [3]: 4.33 µM (≈ 6.43 µg/mL) | MIC [4]: 4.33 µM (≈ 6.43 µg/mL) | MIC (Vibrio alginolyticus): 17.3 µM (≈ 25.7 µg/mL) | MIC [5]: 8.66 µM (≈ 12.9 µg/mL)
SMILES: CC[C@H](C)[C@H](NC(=O)[C@H](Cc1ccccc1)NC(C)=O)C(=O)N[C@@H](Cc1ccccc1)C(=O)N[C@@H](Cc1cnc[nH]1)C(=O)N[C@H](C(=O)N[C@H](C(=O)N[C@@H](CCCCN)C(=O)NCC(=O)N[C@@H](CC(C)C)C(=O)N[C@@H](Cc1ccccc1)C(=O)N[C@@H](Cc1cnc[nH]1)C(=O)N[C@@H](C)C(N)=O)[C@@H](C)CC)[C@@H](C)CC [FIFHIIKGLFHA]

MIC [3]: ≥ 44.2 µM | MIC [6]: ≥ 44.2 µM | MIC [5]: 5.52 µM (≈ 12.7 µg/mL) | MIC [7]: ≥ 44.2 µM
SMILES: CC[C@H](C)[C@H](NC(=O)[C@H](CCCCN)NC(=O)[C@@H]1CCCN1C(=O)[C@@H](NC(=O)[C@H](CC(C)C)NC(=O)[C@H](C)NC(=O)[C@H](Cc1ccccc1)NC(=O)[C@H](Cc1ccccc1)NC(=O)CNC(C)=O)[C@@H](C)CC)C(=O)N[C@H](C(=O)N[C@@H](CO)C(=O)N[C@@H](CO)C(=O)N1CCC[C@H]1C(=O)N[C@@H](CC(C)C)C(=O)N[C@@H](Cc1ccccc1)C(=O)N[C@@H](CCCCN)C(=O)N[C@H](C(=O)N[C@@H](CC(C)C)C(=O)N[C@@H](CC(C)C)C(=O)N[C@@H](CO)C(=O)N[C@@H](C)C(N)=O)[C@@H](C)O)[C@@H](C)CC [GFFALIPKIISSPLFKTLLSA]

MIC (Fusarium oxysporum): 2.33 µM (≈ 3.12 µg/mL) | MIC [11]: 9.1 µM (≈ 12.2 µg/mL) | MIC (Aspergillus ochraceus): ≥ 37.4 µM | MIC [12]: 4.6 µM (≈ 6.15 µg/mL) | MIC (Fulvia fulva): 9.35 µM (≈ 12.5 µg/mL) | MIC (Aspergillus niger): 4.67 µM (≈ 6.25 µg/mL) | MIC (Colletotrichum sp.): 2.33 µM (≈ 3.12 µg/mL) | MIC [13]: 4 µM (≈ 5.35 µg/mL) | MIC (Alternaria sp.): 4.67 µM (≈ 6.25 µg/mL)
SMILES: CC(C)C[C@H](NC(=O)[C@H](Cc1ccc(O)cc1)NC(=O)[C@H](Cc1cnc[nH]1)NC(=O)[C@@H](NC(=O)[C@H](CC(C)C)NC(=O)[C@H](C)NC(=O)[C@H](C)NC(=O)[C@H](CCCCN)NC(=O)CNC(=O)[C@@H](NC(=O)[C@H](Cc1cnc[nH]1)NC(=O)[C@@H](N)CCCCN)C(C)C)[C@@H](C)O)C(=O)O [KHVGKAALTHYL]
